Measurements reported in ChEMBL document CHEMBL1201862, “PubChem BioAssay data set” (2004).
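Where inhibition never reached the appropriate level, the endpoint shown equals the highest concentration tested. Otherwise, values were interpolated linearly from a five-concentration, 48-hour dose response in 96-well plates. GI50 marks 50% less growth.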 The source made the active and inactive calls. No stated cut-off is given here; in the data, active = GI50 up to about 1.1 µM and inactive = higher. Bridge positions count the residues as written; N and C are the ends. Square brackets hold non-standard residues; d marks the D form. Peptide text beside a SMILES is read from it. * marks the point of attachment. Cbz = O=C(OCc1ccccc1)*; Dab = NCC[CH](N)C(=O)O; Bn = c1ccc(C*)cc1

Key:
Test in all cases: growth of human tumour cells (NCI), 48 h
SNB-19 = system: SNB-19
UO-31 = system: UO-31
RPMI-8226 = system: RPMI-8226
HCC 2998 = system: HCC 2998
M14 = system: M14
SK-OV-3 = system: SK-OV-3
ACHN = system: ACHN
KM12 = system: KM12
HOP-62 = system: HOP-62
A498 = system: A498
COLO 205 = system: COLO 205
U-251 = system: U-251
NCI-H23 = system: NCI-H23
HOP-92 = system: HOP-92
NCI-H522 = system: NCI-H522
MDA-MB-435 = system: MDA-MB-435
PC-3 = system: PC-3
MDA-MB-231 = system: MDA-MB-231
DU-145 = system: DU-145

Row | SMILES | GI50 (SNB-19) | GI50 (UO-31) | GI50 (RPMI-8226) | GI50 (HCC 2998) | GI50 (M14) | GI50 (SK-OV-3) | GI50 (ACHN) | GI50 (KM12) | GI50 (HOP-62) | GI50 (A498) | GI50 (COLO 205) | GI50 (U-251) | GI50 (NCI-H23) | GI50 (HOP-92) | GI50 (NCI-H522) | GI50 (MDA-MB-435) | GI50 (PC-3) | GI50 (MDA-MB-231) | GI50 (DU-145)
1 | O=C1C=C(Nc2ccccc2C(=O)CC(=O)C(=O)Nc2ccc(Cl)c(Cl)c2)c2ccccc2C1=O | 37.5 µM (inactive) | 50.7 µM (inactive) | 35.6 µM (inactive) | > 100 µM (inactive) | 32.1 µM (inactive) | > 100 µM (inactive) | 73.5 µM (inactive) | 59.6 µM (inactive) | > 100 µM (inactive) | > 100 µM (inactive) | > 100 µM (inactive) | 34.7 µM (inactive) | 21.1 µM (inactive) | 75.9 µM (inactive) | 18.6 µM (inactive) | – | – | – | –
2 | O=C1c2ccccc2-c2nc(-c3ccccc3)cc3c2c1nc1ccccc13 | 19.4 µM (inactive) | 11.4 µM (inactive) | 0.479 µM (active) | 13.8 µM (inactive) | 5.55 µM (inactive) | 19.5 µM (inactive) | 18.5 µM (inactive) | 15.6 µM (inactive) | 16.7 µM (inactive) | – | 25.6 µM (inactive) | 10.9 µM (inactive) | 3.6 µM (inactive) | – | – | 1.87 µM (inactive) | 4.08 µM (inactive) | 17.6 µM (inactive) | 13.9 µM (inactive)
3 | COC(=O)[C@]12CC3C=CC1N(C3)C(CBr)c1c2n(S(=O)(=O)c2ccccc2)c2ccccc12 (stereo partly drawn) | – | > 100 µM (inactive) | 0.292 µM (active) | > 100 µM (inactive) | > 100 µM (inactive) | > 100 µM (inactive) | 48.3 µM (inactive) | > 100 µM (inactive) | 92.3 µM (inactive) | – | > 100 µM (inactive) | 63 µM (inactive) | 51.5 µM (inactive) | – | 27.9 µM (inactive) | 76.2 µM (inactive) | 42.8 µM (inactive) | 57.1 µM (inactive) | > 100 µM (inactive)
4 | O=c1oc2c/c(=C\c3ccc([N+](=O)[O-])cc3)c(=O)c3cccc1c3-2 | > 100 µM (inactive) | > 100 µM (inactive) | > 100 µM (inactive) | > 100 µM (inactive) | > 100 µM (inactive) | > 100 µM (inactive) | > 100 µM (inactive) | 83.6 µM (inactive) | 38.6 µM (inactive) | – | > 100 µM (inactive) | 28.6 µM (inactive) | > 100 µM (inactive) | 52 µM (inactive) | 28.1 µM (inactive) | > 100 µM (inactive) | > 100 µM (inactive) | > 100 µM (inactive) | > 100 µM (inactive)
5 | O=C(Nc1ccccc1)N(C1=NCC(CI)S1)c1ccc(F)cc1F (stereo not drawn) | > 100 µM (inactive) | > 100 µM (inactive) | 56.2 µM (inactive) | 74.3 µM (inactive) | 79.1 µM (inactive) | > 100 µM (inactive) | > 100 µM (inactive) | 45.6 µM (inactive) | > 100 µM (inactive) | – | 46 µM (inactive) | > 100 µM (inactive) | 50.6 µM (inactive) | 13.8 µM (inactive) | 37.9 µM (inactive) | 50.1 µM (inactive) | 67.1 µM (inactive) | 20.2 µM (inactive) | > 100 µM (inactive)
6 | O=C1NN=C2C=C(c3ccc(Cl)cc3)CC(c3cccc(Cl)c3)C12 (stereo not drawn) | 15.1 µM (inactive) | 19.3 µM (inactive) | 20.5 µM (inactive) | 17.1 µM (inactive) | 38.3 µM (inactive) | 25.1 µM (inactive) | 19.9 µM (inactive) | 28.6 µM (inactive) | 34.4 µM (inactive) | – | 16.8 µM (inactive) | 18.9 µM (inactive) | 32.2 µM (inactive) | 9.79 µM (inactive) | 15.8 µM (inactive) | 19.1 µM (inactive) | 31.8 µM (inactive) | 17.7 µM (inactive) | 64.3 µM (inactive)
7 | COC1=CC23C=CC1[C@@H](c1ccccc1)C2=C(C)C(=O)N3C(=O)NC1CCCCC1 (stereo partly drawn) | 31.8 µM (inactive) | 20.7 µM (inactive) | – | 21.6 µM (inactive) | 19 µM (inactive) | 39 µM (inactive) | 30.9 µM (inactive) | 31.3 µM (inactive) | 21.5 µM (inactive) | 25.6 µM (inactive) | – | 16.5 µM (inactive) | 18.5 µM (inactive) | 19 µM (inactive) | 18.9 µM (inactive) | – | – | – | –
8 | COc1cc(NC(C)=O)ccc1C(=O)N/N=C/c1ccco1 | > 100 µM (inactive) | 67.1 µM (inactive) | 77.6 µM (inactive) | – | > 100 µM (inactive) | > 100 µM (inactive) | 63 µM (inactive) | > 100 µM (inactive) | > 100 µM (inactive) | > 100 µM (inactive) | 31.8 µM (inactive) | – | > 100 µM (inactive) | > 100 µM (inactive) | > 100 µM (inactive) | > 100 µM (inactive) | > 100 µM (inactive) | – | > 100 µM (inactive)
9 | O=C1c2ccccc2C(=O)c2c(NCCCN3CCOCC3)ccc(NCCCN3CCOCC3)c21 | 5.3 µM (inactive) | 3.01 µM (inactive) | 2 µM (inactive) | 2.86 µM (inactive) | 3.1 µM (inactive) | – | 2.07 µM (inactive) | 3.12 µM (inactive) | 2.12 µM (inactive) | 12 µM (inactive) | – | 3.24 µM (inactive) | < 0.01 µM (active) | 1.89 µM (inactive) | 0.67 µM (active) | – | 2.61 µM (inactive) | 3.08 µM (inactive) | < 0.01 µM (active)
10 | Cc1c(-c2nc3ccccc3[nH]2)c(=O)n(-c2ccccc2)n1C | > 100 µM (inactive) | > 100 µM (inactive) | > 100 µM (inactive) | > 100 µM (inactive) | > 100 µM (inactive) | > 100 µM (inactive) | > 100 µM (inactive) | > 100 µM (inactive) | > 100 µM (inactive) | – | > 100 µM (inactive) | > 100 µM (inactive) | > 100 µM (inactive) | > 100 µM (inactive) | > 100 µM (inactive) | > 100 µM (inactive) | > 100 µM (inactive) | > 100 µM (inactive) | > 100 µM (inactive)
11 | CC(C)CC1NC(=O)C(Cc2ccccc2)NC(=O)C(Cc2ccccc2)NC(=O)C(NC(=O)C(Cc2ccc(OCc3ccccc3)cc2)NC(=O)OCc2ccccc2)CCNC1=O (stereo not drawn) (Cbz-Y(Bn)[Dab]FFL; lactam 2-C; configuration not given here) | > 100 µM (inactive) | – | > 100 µM (inactive) | > 100 µM (inactive) | 18.6 µM (inactive) | > 100 µM (inactive) | > 100 µM (inactive) | 64.7 µM (inactive) | > 100 µM (inactive) | – | > 100 µM (inactive) | 29.4 µM (inactive) | 87.1 µM (inactive) | 40.2 µM (inactive) | 23 µM (inactive) | 30.4 µM (inactive) | 68.2 µM (inactive) | 16.4 µM (inactive) | > 100 µM (inactive)
12 | Cc1nn(-c2ccccc2)c(C)c1/C=N/NC(=O)c1sc(=S)n(-c2ccccc2)c1N | 30.8 µM (inactive) | 3.74 µM (inactive) | 3.35 µM (inactive) | 4.61 µM (inactive) | 4.92 µM (inactive) | 1.45 µM (inactive) | 1.48 µM (inactive) | 6.05 µM (inactive) | 9.84 µM (inactive) | 3.63 µM (inactive) | 1.42 µM (inactive) | 4.7 µM (inactive) | 6.81 µM (inactive) | – | – | 4.47 µM (inactive) | 4.03 µM (inactive) | 2.18 µM (inactive) | 9.66 µM (inactive)
13 | O=C1CCCn2c(nc3ccccc32)N1 | > 100 µM (inactive) | > 100 µM (inactive) | > 100 µM (inactive) | – | > 100 µM (inactive) | > 100 µM (inactive) | > 100 µM (inactive) | > 100 µM (inactive) | > 100 µM (inactive) | > 100 µM (inactive) | > 100 µM (inactive) | > 100 µM (inactive) | > 100 µM (inactive) | > 100 µM (inactive) | > 100 µM (inactive) | > 100 µM (inactive) | > 100 µM (inactive) | > 100 µM (inactive) | –
14 | CC1(C(=O)O)CCC2(C)CCC3(C)C(=CC(=O)C4C5(C)CCC(O)C(C)(C)C5CCC43C)C2C1 (stereo not drawn) | 20.6 µM (inactive) | 23.6 µM (inactive) | > 10 µM (inactive) | 23.1 µM (inactive) | 36.3 µM (inactive) | 43.4 µM (inactive) | 22.6 µM (inactive) | 18.3 µM (inactive) | – | – | 38.8 µM (inactive) | 43.1 µM (inactive) | 21.2 µM (inactive) | – | 22.7 µM (inactive) | 35.6 µM (inactive) | 36.1 µM (inactive) | – | 29.6 µM (inactive)
15 | Nc1nc(-c2ccccc2)cc(-c2ccc(F)cc2)c1-c1ccc(Cl)cc1 | > 100 µM (inactive) | > 100 µM (inactive) | 44.3 µM (inactive) | > 100 µM (inactive) | > 100 µM (inactive) | > 100 µM (inactive) | > 100 µM (inactive) | > 100 µM (inactive) | 32.6 µM (inactive) | – | > 100 µM (inactive) | > 100 µM (inactive) | > 100 µM (inactive) | – | – | > 100 µM (inactive) | > 100 µM (inactive) | > 100 µM (inactive) | > 100 µM (inactive)
16 | COc1cc(C(C)c2cc3c(cc2OCCCCOc2cc4c(cc2C(C)c2cc(OC)c(OC)c(OC)c2)OCO4)OCO3)cc(OC)c1OC (stereo not drawn) | > 100 µM (inactive) | 46.3 µM (inactive) | 25.5 µM (inactive) | 29.5 µM (inactive) | 24.5 µM (inactive) | 34.4 µM (inactive) | 69.5 µM (inactive) | 33 µM (inactive) | 37.4 µM (inactive) | – | > 100 µM (inactive) | 29.7 µM (inactive) | 40.4 µM (inactive) | – | – | – | – | – | –
